Drawing on US20230373985A1 (Origenis Gmbh, priority 2020, published 2023), this text covers IC50 for 19 molecules.

The structures appear in SMILES notation.

Assay [1] addresses T1, G2019S human LRRK2, catalytic site (Homo sapiens, UniProt Q5S007, G2019S).
T1 construct: G2019S human LRRK2, catalytic site; purchased ThermoFisher
Briefly: TR-FRET LanthaScreen Eu Kinase Binding Assay, LRRK2 G2019S. The note with it: LRRK2(G2019); one range stated for wt and G2019; read-out: IC50, Activity Toward LRRK2(G2019). On the procedure:
(§1) The basic protocol for TR-FRET LanthaScreen Eu Kinase Binding Assay inhibitor studies were performed as follows. LanthaScreen Kinase Binding Assays (ThermoFisher/USA) to evaluate inhibitors were performed by addition of 5 μL of test compound in corresponding DMSO dilutions/5 μl of kinase/antibody mixture, 5 μL of tracer into 384 well small volume plates. After incubation for 1 hour at room temperature, plates were read. Data analysis of emission ratios was according LanthaScreen Eu Kinase Binding Assay protocol.
(§2) Kinase and assay components were adjusted to final concentrations according to kit protocol. For LRRK2: 5 nM wt human LRRK2, catalytic site, or G2019S human LRRK2, catalytic site (ThermoFisher/USA), 2 nM Eu-Anti-GST Antibody, 10 nM Kinase Tracer 236 in 1× Kinase Buffer A. For NUAK1: 8 nM wt human NUAK1, full length (ThermoFisher/USA), 2 nM Eu-Anti-His Antibody, 5 nM Kinase Tracer 236 in 1× Kinase Buffer A.

For assay [2], the target named is T2, wt human LRRK2, catalytic site (Homo sapiens, UniProt Q5S007).
T2 construct: 5 nM wt human LRRK2, catalytic site; purchased ThermoFisher
Briefly: TR-FRET LanthaScreen Eu Kinase Binding Assay, LRRK2 wt. The following applies: one range stated for wt and G2019, read-out: IC50, Activity Toward LRRK2(Wt). On the procedure:
as §1, §2

In assay [3] the target is T3, wt human JAK1, catalytic site (Homo sapiens, UniProt P23458).
T3 construct: wt human JAK1, catalytic site; purchased ThermoFisher
Nature of the assay: HTRF KinEASE assay, JAK1. Type of assay: biochemical. The note with it: 2.5 μM ATP; read-out: IC50, Activity Toward JAK1. Summed up: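 Two-step HTRF KinEASE assay: compound, kinase/biotinylated TK substrate and ATP were incubated at least 30 min at room temperature. Antibody plus streptavidin-XL665 was then added and plates were read after 60 min. Inhibition was derived from emission ratios according to the kit protocol.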

The target of assay [4] is T4, wt human TYK2, catalytic site (Homo sapiens, UniProt P29597).
T4 construct: wt human TYK2, catalytic site; purchased SignalChem
T4 sequence (P29597 897-1176 limits assumed): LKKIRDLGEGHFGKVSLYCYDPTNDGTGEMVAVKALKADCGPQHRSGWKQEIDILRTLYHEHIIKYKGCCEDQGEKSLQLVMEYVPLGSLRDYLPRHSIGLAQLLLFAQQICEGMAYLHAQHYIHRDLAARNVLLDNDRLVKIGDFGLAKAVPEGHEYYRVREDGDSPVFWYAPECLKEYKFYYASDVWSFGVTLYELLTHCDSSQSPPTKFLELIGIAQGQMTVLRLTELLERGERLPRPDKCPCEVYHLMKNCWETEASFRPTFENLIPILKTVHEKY
Nature of the assay: HTRF KinEASE assay, TYK2. Type of assay: biochemical. The following applies: 1 μM ATP; read-out: IC50, Activity Toward TYK2. Put shortly: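 HTRF KinEASE-TK readout with 1 μM biotinylated TK substrate in 1× kinase buffer, ≥30 min at room temperature, then antibody/streptavidin-XL665 detection for 60 min. TYK2 at 2 nM with 1 μM ATP; JAK2 at 1 nM with 100 μM ATP. Analysis uses emission ratios.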

T1 sequence (Q5S007 970-2527 G2019S limits assumed): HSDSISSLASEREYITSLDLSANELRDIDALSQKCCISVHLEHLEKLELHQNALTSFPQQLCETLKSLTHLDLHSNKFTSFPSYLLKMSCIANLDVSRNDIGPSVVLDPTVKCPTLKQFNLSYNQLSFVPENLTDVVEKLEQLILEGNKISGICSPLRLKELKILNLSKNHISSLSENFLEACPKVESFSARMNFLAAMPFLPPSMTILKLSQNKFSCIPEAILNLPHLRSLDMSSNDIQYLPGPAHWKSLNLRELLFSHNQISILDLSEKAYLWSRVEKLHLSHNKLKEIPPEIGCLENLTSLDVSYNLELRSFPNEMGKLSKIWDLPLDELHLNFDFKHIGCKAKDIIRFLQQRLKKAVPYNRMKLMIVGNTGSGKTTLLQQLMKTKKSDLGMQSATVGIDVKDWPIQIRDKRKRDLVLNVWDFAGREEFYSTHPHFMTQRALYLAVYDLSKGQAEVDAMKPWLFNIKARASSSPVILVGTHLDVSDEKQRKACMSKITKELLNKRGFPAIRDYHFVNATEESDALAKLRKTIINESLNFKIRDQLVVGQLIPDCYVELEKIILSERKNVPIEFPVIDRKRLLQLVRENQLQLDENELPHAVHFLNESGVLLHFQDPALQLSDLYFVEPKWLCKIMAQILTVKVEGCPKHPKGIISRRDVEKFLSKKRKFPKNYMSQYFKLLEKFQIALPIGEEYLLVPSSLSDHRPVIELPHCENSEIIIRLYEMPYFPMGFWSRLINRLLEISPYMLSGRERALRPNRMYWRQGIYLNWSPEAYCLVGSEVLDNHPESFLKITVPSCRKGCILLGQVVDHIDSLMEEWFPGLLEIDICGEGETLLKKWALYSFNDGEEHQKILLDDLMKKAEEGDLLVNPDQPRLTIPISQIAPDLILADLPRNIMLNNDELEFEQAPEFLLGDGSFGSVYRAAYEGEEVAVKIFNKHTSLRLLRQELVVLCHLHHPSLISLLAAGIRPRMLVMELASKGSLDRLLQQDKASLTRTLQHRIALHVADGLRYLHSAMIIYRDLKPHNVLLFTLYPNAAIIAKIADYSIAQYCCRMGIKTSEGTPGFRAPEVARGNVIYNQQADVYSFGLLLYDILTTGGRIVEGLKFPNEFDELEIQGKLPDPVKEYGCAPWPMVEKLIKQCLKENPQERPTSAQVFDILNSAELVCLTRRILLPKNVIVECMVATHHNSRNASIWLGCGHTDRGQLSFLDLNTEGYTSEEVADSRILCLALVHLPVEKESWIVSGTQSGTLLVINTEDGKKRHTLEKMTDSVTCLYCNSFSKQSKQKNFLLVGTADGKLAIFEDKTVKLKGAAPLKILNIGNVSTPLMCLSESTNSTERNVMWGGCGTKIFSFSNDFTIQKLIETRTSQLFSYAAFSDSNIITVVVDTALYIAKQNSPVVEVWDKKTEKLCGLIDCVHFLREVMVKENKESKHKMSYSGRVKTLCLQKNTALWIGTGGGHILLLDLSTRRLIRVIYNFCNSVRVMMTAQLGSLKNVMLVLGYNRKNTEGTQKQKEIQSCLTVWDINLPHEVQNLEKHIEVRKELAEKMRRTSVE
T2 sequence (Q5S007 970-2527 limits assumed): as the sequence (Q5S007 970-2527 G2019S limits assumed) above, with S1050G counted along it
T3 sequence (P23458 875-1153 limits assumed): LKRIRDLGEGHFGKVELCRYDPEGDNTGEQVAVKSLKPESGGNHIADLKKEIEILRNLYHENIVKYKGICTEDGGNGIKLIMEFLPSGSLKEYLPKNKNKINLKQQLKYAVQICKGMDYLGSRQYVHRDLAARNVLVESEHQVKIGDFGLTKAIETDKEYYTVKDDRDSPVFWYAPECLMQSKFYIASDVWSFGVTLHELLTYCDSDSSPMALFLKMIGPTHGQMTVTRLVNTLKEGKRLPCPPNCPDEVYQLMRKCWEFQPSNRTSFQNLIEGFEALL

With `NC(=O)c1nn(-c2c(Cl)cccc2Cl)cc1Nc1ccc(C(=O)N2CC3(CCC3)C2)cc1` [compound 46, 4-((4-(2-azaspiro[3.3]heptane-2-carbonyl)phenyl)amino)-1-(2,6-dichlorophenyl)-1H-pyrazole-3-carboxamide], the IC50 in assay [1] was 100 to 1000 nM; in assay [2] it was 100 to 1000 nM; in assay [3], below 10 nM; in assay [4] it was below 10 nM.

`CCn1cc(C(F)(F)F)nc1-c1ccc(Nc2cn(-c3c(F)cccc3Cl)nc2C(N)=O)cc1` [compound 303, 1-(2-chloro-6-fluorophenyl)-4-((4-(1-ethyl-4-(trifluoromethyl)-1H-imidazol-2-yl)phenyl)amino)-1H-pyrazole-3-carboxamide]: the IC50 in assay [1] fell in the range of 100 to 1000 nM; in assay [2], 100 to 1000 nM; in assay [3] it was 10 to 100 nM; in assay [4], 10 to 100 nM.

Regarding `CCn1nc(C(F)(F)F)nc1-c1ccc(Nc2cn(-c3c(F)cccc3F)nc2C(N)=O)cc1` [compound 302, 1-(2,6-difluorophenyl)-4-((4-(1-ethyl-3-(trifluoromethyl)-1H-1,2,4-triazol-5-yl)phenyl)amino)-1H-pyrazole-3-carboxamide], the IC50 in assay [1] was 100 to 1000 nM; in assay [2] it was 100 to 1000 nM; in assay [3], 10 to 100 nM; in assay [4] it was below 10 nM.

For the molecule `N#Cc1ccnnc1-c1ccc(Nc2cn(-c3c(Cl)cccc3Cl)nc2C(N)=O)cc1` [compound 60, 4-((4-(4-cyanopyridazin-3-yl)phenyl)amino)-1-(2,6-dichlorophenyl)-1H-pyrazole-3-carboxamide], the IC50 in assay [1] is 100 to 1000 nM; in assay [2] it was 100 to 1000 nM; in assay [3], 10 to 100 nM; in assay [4], 10 to 100 nM.

Regarding `NC(=O)c1nn(-c2c(Cl)cccc2Cl)cc1Nc1ccc(C(=O)N2CCC(F)(F)C2)cc1` [compound 247, 1-(2,6-dichlorophenyl)-4-((4-(3,3-difluoropyrrolidine-1-carbonyl)phenyl)amino)-1H-pyrazole-3-carboxamide], the IC50 in assay [1] was 100 to 1000 nM; in assay [2], 100 to 1000 nM; in assay [3], 10 to 100 nM; in assay [4] it was below 10 nM.

As to `NC(=O)c1nn(-c2c(F)cccc2F)cc1Nc1cccc(C(=O)N2CCOCC2)c1` [compound 18, 1-(2,6-difluorophenyl)-4-((3-(morpholine-4-carbonyl)phenyl)amino)-1H-pyrazole-3-carboxamide], the IC50 in assay [1], in assay [2], in assay [3] and in assay [4] was 100 to 1000 nM each time.

`CN1CCC(N(C)C(=O)c2ccc(Nc3cn(-c4c(Cl)cccc4Cl)nc3C(N)=O)cc2)CC1` [compound 50, 1-(2,6-dichlorophenyl)-4-((4-(methyl(1-methylpiperidin-4-yl)carbamoyl)phenyl)amino)-1H-pyrazole-3-carboxamide]: the IC50 in assay [1] lay within 100 to 1000 nM; in assay [2], 100 to 1000 nM; in assay [3] it was 100 to 1000 nM; in assay [4], 10 to 100 nM.

Regarding `CCn1ncnc1-c1ccc(Nc2cn(-c3c(Cl)cccc3Cl)nc2C(N)=O)cc1` [compound 47, 1-(2,6-dichlorophenyl)-4-((4-(1-ethyl-1H-1,2,4-triazol-5-yl)phenyl)amino)-1H-pyrazole-3-carboxamide], the IC50 in assay [1] lay in the range of 100 to 1000 nM; in assay [2], 100 to 1000 nM; in assay [3], 100 to 1000 nM; in assay [4], 10 to 100 nM.

Turning to `CCNC(=O)c1ccc(Nc2cn(-c3c(F)cccc3Cl)nc2C(N)=O)cc1` [compound 40, 1-(2-chloro-6-fluorophenyl)-4-((4-(ethylcarbamoyl)phenyl)amino)-1H-pyrazole-3-carboxamide], the IC50 in assay [1] fell in the range of 100 to 1000 nM; in assay [2] it was 100 to 1000 nM; in assay [3], 10 to 100 nM; in assay [4] it was 10 to 100 nM.

`CN=S1(=O)CCN(C(=O)c2ccc(Nc3cn(-c4c(Cl)cccc4Cl)nc3C(N)=O)cc2)CC1` [compound 466, 1-(2,6-dichlorophenyl)-4-((4-(1-(methylimino)-1-oxidothiomorpholine-4-carbonyl)phenyl)amino)-1H-pyrazole-3-carboxamide]: the IC50 is 100 to 1000 nM in assay [1], 100 to 1000 nM in assay [2], 10 to 100 nM in assay [3] and below 10 nM in assay [4].

Consider `NC(=O)c1nn(-c2c(Cl)cccc2Cl)cc1Nc1ccc(C(=O)N2CC[C@@H](F)C2)cc1` [compound 315, (R)-1-(2,6-dichlorophenyl)-4-((4-(3-fluoropyrrolidine-1-carbonyl)phenyl)amino)-1H-pyrazole-3-carboxamide], for which the IC50 in assay [1] was 100 to 1000 nM; in assay [2], 100 to 1000 nM; in assay [3], 10 to 100 nM; in assay [4], below 10 nM.

Take `CCc1nnnn1-c1ccc(Nc2cn(-c3c(Cl)cccc3Cl)nc2C(N)=O)cc1` [compound 259, 1-(2,6-dichlorophenyl)-4-((4-(5-ethyl-1H-tetrazol-1-yl)phenyl)amino)-1H-pyrazole-3-carboxamide]: the IC50 in assay [1] was 100 to 1000 nM; in assay [2] it was 100 to 1000 nM; in assay [3] it was 10 to 100 nM; in assay [4], below 10 nM.

`CCn1cc(C(F)(F)F)nc1-c1ccc(Nc2cn(-c3c(F)cccc3F)nc2C(N)=O)cc1` [compound 304, 1-(2,6-difluorophenyl)-4-((4-(1-ethyl-4-(trifluoromethyl)-1H-imidazol-2-yl)phenyl)amino)-1H-pyrazole-3-carboxamide]: the IC50 fell in the range of 10 to 100 nM in assay [1], 10 to 100 nM in assay [2], 100 to 1000 nM in assay [3] and 10 to 100 nM in assay [4].

Regarding `Cc1ccnn1-c1ccc(Nc2cn(-c3c(Cl)cccc3Cl)nc2C(N)=O)cc1` [compound 80, 1-(2,6-dichlorophenyl)-4-((4-(5-methyl-1H-pyrazol-1-yl)phenyl)amino)-1H-pyrazole-3-carboxamide], the IC50 in assay [1] is 100 to 1000 nM; in assay [2], 100 to 1000 nM; in assay [3] it was 10 to 100 nM; in assay [4] it was 10 to 100 nM.

For the molecule `Cc1ccncc1-c1ccc(Nc2cn(-c3c(Cl)cccc3Cl)nc2C(N)=O)cn1` [compound 394, 1-(2,6-dichlorophenyl)-4-((4′-methyl-[2,3′-bipyridin]-5-yl)amino)-1H-pyrazole-3-carboxamide], the IC50 in assay [1], in assay [2], in assay [3] and in assay [4] was 100 to 1000 nM in each case.

For `NC(=O)c1nn(-c2c(Cl)cccc2Cl)cc1Nc1ccc(-c2nnc3n2CCCCC3)cc1` [compound 63, 1-(2,6-dichlorophenyl)-4-((4-(6,7,8,9-tetrahydro-5H-[1,2,4]triazolo[4,3-a]azepin-3-yl)phenyl)amino)-1H-pyrazole-3-carboxamide], the IC50 in assay [1] lay in the range of 10 to 100 nM; in assay [2], 10 to 100 nM; in assay [3] it was 100 to 1000 nM; in assay [4], 10 to 100 nM.

Turning to `CCn1cc(C#N)nc1-c1ccc(Nc2cn(-c3c(Cl)cccc3Cl)nc2C(N)=O)cc1` [compound 310, 4-((4-(4-cyano-1-ethyl-1H-imidazol-2-yl)phenyl)amino)-1-(2,6-dichlorophenyl)-1H-pyrazole-3-carboxamide], the IC50 in assay [1] was in the range of 100 to 1000 nM; in assay [2], 100 to 1000 nM; in assay [3], 10 to 100 nM; in assay [4], 10 to 100 nM.

With `NC(=O)c1nn(-c2c(Cl)cccc2Cl)cc1Nc1ccc(C(=O)NCCF)cc1` [compound 421, 1-(2,6-dichlorophenyl)-4-((4-((2-fluoroethyl)carbamoyl)phenyl)amino)-1H-pyrazole-3-carboxamide], the IC50 in assay [1] fell in the range of 100 to 1000 nM; in assay [2], 100 to 1000 nM; in assay [3] it was 10 to 100 nM; in assay [4] it was 10 to 100 nM.

In the case of `N#Cc1cccnc1-c1ccc(Nc2cn(-c3c(Cl)cccc3Cl)nc2C(N)=O)cc1` [compound 59, 4-((4-(3-cyanopyridin-2-yl)phenyl)amino)-1-(2,6-dichlorophenyl)-1H-pyrazole-3-carboxamide], the IC50 was 100 to 1000 nM in assay [1], 100 to 1000 nM in assay [2], 10 to 100 nM in assay [3] and 100 to 1000 nM in assay [4].
